# Measured values reported in patent publication US7741360B2, “Bi-aryl or aryl-heteroaryl substituted indoles” (AstraZeneca AB, priority 2006, dated 2010).
# Molecular target: T1, rhCRTh2 (Homo sapiens, UniProt Q9Y5Y4)
# T1 construct: expressed in transfected cells; host or cells: HEK cells (membrane preparation)
# T1 sequence (Q9Y5Y4 1-395): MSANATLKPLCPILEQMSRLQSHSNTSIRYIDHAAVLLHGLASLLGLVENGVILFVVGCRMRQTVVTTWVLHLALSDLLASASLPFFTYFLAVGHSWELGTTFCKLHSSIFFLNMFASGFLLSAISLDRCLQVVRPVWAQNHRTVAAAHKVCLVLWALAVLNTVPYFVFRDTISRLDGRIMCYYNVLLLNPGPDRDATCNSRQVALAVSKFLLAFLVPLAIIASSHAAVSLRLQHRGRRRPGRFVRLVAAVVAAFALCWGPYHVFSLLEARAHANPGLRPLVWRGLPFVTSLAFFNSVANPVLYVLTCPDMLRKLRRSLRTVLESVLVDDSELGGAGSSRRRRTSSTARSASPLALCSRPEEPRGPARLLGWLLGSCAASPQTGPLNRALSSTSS
# Experiment: Ligand binding assay, [3H]PGD2 SPA on HEK cell membranes
# Conditions: [3H]PGD2 displacement, membranes of HEK cells expressing rhCRTh2/Gα16, SPA beads, RT 2 hours
# Protocol: [^3H]PGD2 was purchased from Perkin Elmer Life Sciences with a specific activity of 100-210 Ci/mmol. All other chemicals were of analytical grade.
# HEK cells expressing rhCRTh2/Gα16 were routinely maintained in DMEM containing 10% Foetal Bovine Serum (HyClone), 1 mg/ml geneticin, 2 mM L-glutamine and 1% non-essential amino acids. For the preparation of membranes, the adherent transfected HEKcells were grown to confluence in two layer tissue culture factories (Fisher, catalogue number TKT-170-070E). Maximal levels of receptor expression were induced by addition of […] sodium butyrate for the last 18 hours of culture. […] The final pellet was re-suspended in 4 ml of membrane homogenisation buffer per cell factory used and the protein content determined. […]
# All assays were performed in Corning clear bottomed, white 96-well NBS plates (Fisher). […] (The optimum coating concentrations were determined for each batch of membranes) The beads were pelleted by centrifugation (800×g for 7 minutes at 4° C.), washed once with assay buffer (50 mM HEPES pH 7.4 containing 5 mM magnesium chloride) and finally re-suspended in assay buffer at a bead concentration of 10 mg/ml. […]
structure (smiles),measurement,value
"Cc1c(Sc2ccc(-c3ccccc3)cc2)c2cc(F)ccc2n1CC(=O)O [Example 1, [3-(Biphenyl-4-ylsulfanyl)-5-fluoro-2-methyl-indol-1-yl]-acetic acid]",IC50,20 nM
